Measurements reported in patent US20240190890A1, “MK2 INHIBITORS AND USES THEREOF” (Bristol-Myers Squibb Company, priority 2022, published 2024).

target: p38a activated, mitogen-activated protein kinase-activated protein kinase 2 (MAPKAP-K2 or MK2) enzyme (Homo sapiens (Human), UniProt P49137); assay: MK2 Omnia continuous-read kinase assay for compound potency; type: biochemical; details: [MK-2]=0.4 nM, [ATP]=10 μM, [ST3-Sox]=10 μM; room temperature
Summary of the method: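 p38a-activated MK2 (0.4 nM) with 10 μM ATP (apparent Km) and 10 μM S/T3-Sox peptide in Tris pH 7.5 buffer with MgCl2, EGTA and DTT. Fluorescence (ex360/em485) read continuously for 120 min at room temperature. IC50 from initial linear slopes; apparent kinact/KI from kobs of exponential progress-curve fits.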

p38a activated, mitogen-activated protein kinase-activated protein kinase 2 (MAPKAP-K2 or MK2) enzyme, sequence (P49137 whole entry): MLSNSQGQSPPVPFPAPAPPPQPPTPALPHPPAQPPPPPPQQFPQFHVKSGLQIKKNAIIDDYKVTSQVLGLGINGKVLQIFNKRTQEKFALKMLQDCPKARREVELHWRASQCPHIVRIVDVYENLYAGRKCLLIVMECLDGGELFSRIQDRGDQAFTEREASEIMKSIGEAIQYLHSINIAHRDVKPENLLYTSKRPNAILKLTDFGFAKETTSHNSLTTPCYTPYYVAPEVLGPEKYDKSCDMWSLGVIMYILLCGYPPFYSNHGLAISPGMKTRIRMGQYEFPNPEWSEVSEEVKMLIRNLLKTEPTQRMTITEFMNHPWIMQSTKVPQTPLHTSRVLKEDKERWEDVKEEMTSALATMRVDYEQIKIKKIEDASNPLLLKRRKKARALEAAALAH

Row | SMILES | IC50
1 | C#Cc1ncc(F)c(-c2ccc3c(ccc4sc5c(c43)NC[C@@H](C)NC5=O)n2)n1 [Example I-1, (R)-3-(2-ethynyl-5-fluoropyrimidin-4-yl)-10-methyl-9,10,11,12-tetrahydro-8H-[1,4]diazepino[5′,6′:4,5]thieno[3,2-f]quinolin-8-one] | 5 nM
2 | C[C@@H]1CNc2c(sc3ccc4nc(-c5ccnc(Cl)n5)ccc4c23)C(=O)N1 [Example I-8, (R)-3-(2-chloropyrimidin-4-yl)-10-methyl-9,10,11,12-tetrahydro-8H-[1,4]diazepino[5′,6′:4,5]thieno[3,2-f]quinolin-8-one] | 75 nM
3 | C#Cc1nncn1-c1ccc2c(ccc3sc4c(c32)NC[C@@H](C)NC4=O)n1 [Example I-204, (R)-3-(3-ethynyl-4H-1,2,4-triazol-4-yl)-10-methyl-9,10,11,12-tetrahydro-8H-[1,4]diazepino[5′,6′:4,5]thieno[3,2-f]quinolin-8-one] | 555 nM
4 | C#Cc1nccc(-c2ccc3c(ccc4sc5c(c43)NC[C@@H](C)NC5=O)n2)n1 [Example I-40, (R)-3-(2-ethynylpyrimidin-4-yl)-10-methyl-9,10,11,12-tetrahydro-8H-[1,4]diazepino[5′,6′:4,5]thieno[3,2-f]quinolin-8-one] | 25 nM
5 | C=Cc1cc(-c2ccc3c(ccc4sc5c(c43)NC[C@@H](C)NC5=O)n2)c(CO)cn1 [Example I-252, (R)-3-(5-(hydroxymethyl)-2-vinylpyridin-4-yl)-10-methyl-9,10,11,12-tetrahydro-8H-[1,4]diazepino[5′,6′:4,5]thieno[3,2-f]quinolin-8-one] | 5 nM
6 | C=Cc1cc(-c2ccc3c(ccc4sc5c(c43)NC[C@@H](C)NC5=O)n2)cc(Cl)n1 [Example I-72, (R)-3-(2-chloro-6-vinylpyridin-4-yl)-10-methyl-9,10,11,12-tetrahydro-8H-[1,4]diazepino[5′,6′:4,5]thieno[3,2-f]quinolin-8-one] | 58 nM
7 | C[C@@H]1CNc2c(sc3ccc4nc(-c5cc(Cl)nnc5OCCN5CCOCC5)ccc4c23)C(=O)N1 [Example I-132, (R)-3-(6-chloro-3-(2-morpholinoethoxy)pyridazin-4-yl)-10-methyl-9,10,11,12-tetrahydro-8H-[1,4]diazepino[5′,6′:4,5]thieno[3,2-f]quinolin-8-one] | 912 nM
8 | C[C@@H]1CNc2c(sc3ccc4nc(-n5ccnc5Cl)ccc4c23)C(=O)N1 [Example I-205, (R)-3-(2-chloro-1H-imidazol-1-yl)-10-methyl-9,10,11,12-tetrahydro-8H-[1,4]diazepino[5′,6′:4,5]thieno[3,2-f]quinolin-8-one] | 97 nM
9 | C/C=C/c1ncc(COCC)c(-c2ccc3c(ccc4sc5c(c43)NC[C@@H](C)NC5=O)n2)n1 [Example I-48, (R,E)-3-(5-(ethoxymethyl)-2-(prop-1-en-1-yl)pyrimidin-4-yl)-10-methyl-9,10,11,12-tetrahydro-8H-[1,4]diazepino[5′,6′:4,5]thieno[3,2-f]quinolin-8-one] | 371 nM
10 | C[C@@H]1CNc2c(sc3ccc4nc(-c5ccnc(Cl)c5F)ccc4c23)C(=O)N1 [Example I-221, (R)-3-(2-chloro-3-fluoropyridin-4-yl)-10-methyl-9,10,11,12-tetrahydro-8H-[1,4]diazepino[5′,6′:4,5]thieno[3,2-f]quinolin-8-one] | 212 nM
11 | C=Cc1ncc(CO)c(-c2ccc3c(ccc4sc5c(c43)NC[C@@H](C)NC5=O)n2)n1 [Example I-77, (R)-3-(5-(hydroxymethyl)-2-vinylpyrimidin-4-yl)-10-methyl-9,10,11,12-tetrahydro-8H-[1,4]diazepino[5′,6′:4,5]thieno[3,2-f]quinolin-8-one] | 13 nM
12 | C=Cc1ncc(-c2ccc3c(ccc4sc5c(c43)NC[C@@H](C)NC5=O)n2)s1 [Example I-209, (R)-10-methyl-3-(2-vinylthiazol-5-yl)-9,10,11,12-tetrahydro-8H-[1,4]diazepino[5′,6′:4,5]thieno[3,2-f]quinolin-8-one] | 15 nM
13 | C[C@@H]1CNc2c(sc3ccc4nc(-c5cc(Cl)nc(COC6CCN(C)CC6)n5)ccc4c23)C(=O)N1 [Example I-15, (R)-3-(6-chloro-2-(((1-methylpiperidin-4-yl)oxy)methyl)pyrimidin-4-yl)-10-methyl-9,10,11,12-tetrahydro-8H-[1,4]diazepino[5′,6′:4,5]thieno[3,2-f]quinolin-8-one] | 10 nM
14 | C#Cc1cc(-c2ccc3c(ccc4sc5c(c43)NC[C@@H](C)NC5=O)n2)nc(COCC)n1 [Example I-39, (R)-3-(2-(ethoxymethyl)-6-ethynylpyrimidin-4-yl)-10-methyl-9,10,11,12-tetrahydro-8H-[1,4]diazepino[5′,6′:4,5]thieno[3,2-f]quinolin-8-one] | 8 nM

More lines, in order of falling IC50, values ahead:

Row | IC50 | SMILES
15 | 487 nM | C[C@@H]1CNc2c(sc3ccc4nc(-c5cc(Cl)nc(COC6CCOCC6)n5)ccc4c23)C(=O)N1 [Example I-23, (R)-3-(6-chloro-2-(((tetrahydro-2H-pyran-4-yl)oxy)methyl)pyrimidin-4-yl)-10-methyl-9,10,11,12-tetrahydro-8H-[1,4]diazepino[5′,6′:4,5]thieno[3,2-f]quinolin-8-one]
16 | 140 nM | C=Cc1cc(-c2ccc3c(ccc4sc5c(c43)NC[C@@H](C)NC5=O)n2)cc(N2CCCCC2)n1 [Example I-177, (R)-10-methyl-3-(2-(piperidin-1-yl)-6-vinylpyridin-4-yl)-9,10,11,12-tetrahydro-8H-[1,4]diazepino[5′,6′:4,5]thieno[3,2-f]quinolin-8-one]
17 | 111 nM | C=Cc1cc(-c2ccc3c(ccc4sc5c(c43)NC[C@@H](C)NC5=O)n2)cc(CN2CCC3(CC2)CC3(F)F)n1 [Example I-141, (R)-3-(2-((1,1-difluoro-6-azaspiro[2.5]octan-6-yl)methyl)-6-vinylpyridin-4-yl)-10-methyl-9,10,11,12-tetrahydro-8H-[1,4]diazepino[5′,6′:4,5]thieno[3,2-f]quinolin-8-one]
18 | 97 nM | C[C@@H]1CNc2c(sc3ccc4nc(-c5nc(Cl)ncc5C#N)ccc4c23)C(=O)N1 [Example I-9, (R)-2-chloro-4-(10-methyl-8-oxo-9,10,11,12-tetrahydro-8H-[1,4]diazepino[5′,6′:4,5]thieno[3,2-f]quinolin-3-yl)pyrimidine-5-carbonitrile]
19 | 96 nM | C=C(CN1CCOCC1)c1cc(-c2ccc3c(ccc4sc5c(c43)NC[C@@H](C)NC5=O)n2)c(OC)nn1 [Example I-138, (R)-3-(3-methoxy-6-(3-morpholinoprop-1-en-2-yl)pyridazin-4-yl)-10-methyl-9,10,11,12-tetrahydro-8H-[1,4]diazepino[5′,6′:4,5]thieno[3,2-f]quinolin-8-one]
20 | 60 nM | C#Cc1cc(-c2ccc3c(ccc4sc5c(c43)NC[C@@H](C)NC5=O)n2)cc(CO)n1 [Example I-98, (R)-3-(2-ethynyl-6-(hydroxymethyl)pyridin-4-yl)-10-methyl-9,10,11,12-tetrahydro-8H-[1,4]diazepino[5′,6′:4,5]thieno[3,2-f]quinolin-8-one]
21 | 43 nM | C=Cc1ncc(COC2CCOCC2)c(-c2ccc3c(ccc4sc5c(c43)NC[C@@H](C)NC5=O)n2)n1 [Example I-25, (R)-10-methyl-3-(5-(((tetrahydro-2H-pyran-4-yl)oxy)methyl)-2-vinylpyrimidin-4-yl)-9,10,11,12-tetrahydro-8H-[1,4]diazepino[5′,6′:4,5]thieno[3,2-f]quinolin-8-one]
22 | 28 nM | C=Cc1nc(C)c(C)n1-c1ccc2c(ccc3sc4c(c32)NC[C@@H](C)NC4=O)n1 [Example I-231, (R)-3-(4,5-dimethyl-2-vinyl-1H-imidazol-1-yl)-10-methyl-9,10,11,12-tetrahydro-8H-[1,4]diazepino[5′,6′:4,5]thieno[3,2-f]quinolin-8-one]
23 | 23 nM | C=Cc1cc(-c2ccc3c(ccc4sc5c(c43)NC[C@@H](C)NC5=O)n2)c(CN2CCOCC2)cn1 [Example I-153, (R)-10-methyl-3-(5-(morpholinomethyl)-2-vinylpyridin-4-yl)-9,10,11,12-tetrahydro-8H-[1,4]diazepino[5′,6′:4,5]thieno[3,2-f]quinolin-8-one]
24 | 7 nM | C=Cc1cc(-c2ccc3c(ccc4sc5c(c43)NC[C@@H](C)NC5=O)n2)cc(CN2C[C@@H](C)O[C@@H](C)C2)n1 [Example I-185, (R)-3-(2-(((2S,6R)-2,6-dimethylmorpholino)methyl)-6-vinylpyridin-4-yl)-10-methyl-9,10,11,12-tetrahydro-8H-[1,4]diazepino[5′,6′:4,5]thieno[3,2-f]quinolin-8-one]
25 | 2 nM | C=Cc1cc(-c2ccc3c(ccc4sc5c(c43)NC[C@@H](C)NC5=O)n2)cc(CO)n1 [Example I-99, (R)-3-(2-(hydroxymethyl)-6-vinylpyridin-4-yl)-10-methyl-9,10,11,12-tetrahydro-8H-[1,4]diazepino[5′,6′:4,5]thieno[3,2-f]quinolin-8-one]
